One experiment has as its target T1, Glucocorticoid receptor (Homo sapiens, UniProt P04150).
T1 sequence (P04150 whole entry): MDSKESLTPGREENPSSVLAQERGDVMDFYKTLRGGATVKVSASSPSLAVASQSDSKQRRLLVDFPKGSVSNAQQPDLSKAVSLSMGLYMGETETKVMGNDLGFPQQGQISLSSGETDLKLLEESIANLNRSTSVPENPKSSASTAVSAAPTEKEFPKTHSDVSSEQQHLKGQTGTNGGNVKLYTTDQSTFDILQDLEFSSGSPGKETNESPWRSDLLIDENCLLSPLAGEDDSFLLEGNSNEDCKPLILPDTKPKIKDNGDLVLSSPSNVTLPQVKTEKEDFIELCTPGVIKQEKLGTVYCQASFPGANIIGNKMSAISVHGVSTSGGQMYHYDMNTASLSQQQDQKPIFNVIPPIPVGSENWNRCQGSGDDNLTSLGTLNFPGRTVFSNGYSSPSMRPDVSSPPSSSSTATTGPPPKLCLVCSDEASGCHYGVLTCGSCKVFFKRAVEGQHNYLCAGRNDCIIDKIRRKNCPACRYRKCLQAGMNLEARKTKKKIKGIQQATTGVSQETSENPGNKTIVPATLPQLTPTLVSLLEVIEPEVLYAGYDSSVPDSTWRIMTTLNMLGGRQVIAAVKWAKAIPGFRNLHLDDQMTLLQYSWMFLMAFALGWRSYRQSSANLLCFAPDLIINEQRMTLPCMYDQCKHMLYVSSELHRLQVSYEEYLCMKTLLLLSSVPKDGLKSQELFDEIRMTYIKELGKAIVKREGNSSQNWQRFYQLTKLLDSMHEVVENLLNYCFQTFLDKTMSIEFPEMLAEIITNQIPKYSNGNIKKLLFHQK
The experiment in a line: Antagonist activity at glucocorticoid receptor in human A549 cells assessed as inhibition of corticoid-induced transcription after 16 hrs by glucocorticoid response element-driven luciferase reporter gene assay. Type of experiment: functional, cell-based.
Regarding `COc1ccc([C@H]2OC[C@@]3(C)[C@@H](CC[C@@]3(O)C#Cc3ccc(C(F)(F)F)cc3)[C@@H]3CCC4=CC(=O)CCC4=C32)cc1`, the IC50 was 26 nM.

As for `C#C[C@]1(O)CC[C@H]2[C@@H]3CCC4=CC(=O)CCC4=C3[C@@H](c3ccc(OC)cc3)OC[C@@]21C`, the IC50 amounted to 110 nM.

As for `COc1ccc([C@H]2OC[C@@]3(C)[C@@H](CC[C@@]3(O)C#Cc3ccccc3)[C@@H]3CCC4=CC(=O)CCC4=C32)cc1`, the IC50 came to 21 nM.

`CC#C[C@]1(O)CC[C@H]2[C@@H]3CCC4=CC(=O)CCC4=C3[C@@H](c3ccc(N(C)C)cc3)OC[C@@]21C`: the IC50 came out at 17 nM.

Take `C=C(C)[C@]1(O)CC[C@H]2[C@@H]3CCC4=CC(=O)CCC4=C3[C@@H](c3ccc(SC)cc3)OC[C@@]21C`: the IC50 was found to be 58 nM.

In the case of `C=C1CCO[C@]12CC[C@H]1[C@@H]3CCC4=CC(=O)CCC4=C3[C@@H](c3ccc(N(C)C)cc3)OC[C@@]12C`, the IC50 stood at 62 nM.

On to `CSc1ccc([C@H]2OC[C@@]3(C)[C@@H](CC[C@@]3(O)C(F)(F)C(F)(F)F)[C@@H]3CCC4=CC(=O)CCC4=C32)cc1`, for which the IC50 was determined as 7 nM.

`CN(C)c1ccc([C@H]2OC[C@@]3(C)[C@@H](CC[C@@]3(O)C#Cc3ccccc3)[C@@H]3CCC4=CC(=O)CCC4=C32)cc1`: the IC50 turned out to be 102 nM.

In the case of `CN(C)c1ccc([C@H]2OC[C@]3(C)[C@@H](O)CC[C@H]3[C@@H]3CCC4=CC(=O)CCC4=C32)cc1`, the IC50 is 1400 nM.

Regarding `C=C(C)[C@]1(O)CC[C@H]2[C@@H]3CCC4=CC(=O)CCC4=C3[C@@H](c3ccc(N(C)C)cc3)OC[C@@]21C`, the IC50 amounted to 150 nM.

Regarding `C=C(C)[C@]1(O)CC[C@H]2[C@@H]3CCC4=CC(=O)CCC4=C3[C@@H](c3ccc(S(C)(=O)=O)cc3)OC[C@@]21C`, the IC50 is above 3000 nM.

`CN(C)c1ccc([C@H]2OC[C@@]3(C)[C@@H](CC[C@@]3(O)C(F)(F)C(F)(F)F)[C@@H]3CCC4=CC(=O)CCC4=C32)cc1`: the IC50 came to 20 nM.

As to `C=C1CCO[C@]12CC[C@H]1[C@@H]3CCC4=CC(=O)CCC4=C3[C@@H](c3ccc(OC)cc3)OC[C@@]12C`, the IC50 was 132 nM.

As for `CC#C[C@]1(O)CC[C@H]2[C@@H]3CCC4=CC(=O)CCC4=C3[C@@H](c3ccc(OC)cc3)OC[C@@]21C`, the IC50 is 41 nM.

In the case of `C#C[C@]1(O)CC[C@H]2[C@@H]3CCC4=CC(=O)CCC4=C3[C@@H](c3ccc(N(C)C)cc3)OC[C@@]21C`, the IC50 was 68 nM.

The next experiment has as its target T2, Progesterone receptor (Homo sapiens, UniProt P06401).
T2 sequence (P06401 whole entry): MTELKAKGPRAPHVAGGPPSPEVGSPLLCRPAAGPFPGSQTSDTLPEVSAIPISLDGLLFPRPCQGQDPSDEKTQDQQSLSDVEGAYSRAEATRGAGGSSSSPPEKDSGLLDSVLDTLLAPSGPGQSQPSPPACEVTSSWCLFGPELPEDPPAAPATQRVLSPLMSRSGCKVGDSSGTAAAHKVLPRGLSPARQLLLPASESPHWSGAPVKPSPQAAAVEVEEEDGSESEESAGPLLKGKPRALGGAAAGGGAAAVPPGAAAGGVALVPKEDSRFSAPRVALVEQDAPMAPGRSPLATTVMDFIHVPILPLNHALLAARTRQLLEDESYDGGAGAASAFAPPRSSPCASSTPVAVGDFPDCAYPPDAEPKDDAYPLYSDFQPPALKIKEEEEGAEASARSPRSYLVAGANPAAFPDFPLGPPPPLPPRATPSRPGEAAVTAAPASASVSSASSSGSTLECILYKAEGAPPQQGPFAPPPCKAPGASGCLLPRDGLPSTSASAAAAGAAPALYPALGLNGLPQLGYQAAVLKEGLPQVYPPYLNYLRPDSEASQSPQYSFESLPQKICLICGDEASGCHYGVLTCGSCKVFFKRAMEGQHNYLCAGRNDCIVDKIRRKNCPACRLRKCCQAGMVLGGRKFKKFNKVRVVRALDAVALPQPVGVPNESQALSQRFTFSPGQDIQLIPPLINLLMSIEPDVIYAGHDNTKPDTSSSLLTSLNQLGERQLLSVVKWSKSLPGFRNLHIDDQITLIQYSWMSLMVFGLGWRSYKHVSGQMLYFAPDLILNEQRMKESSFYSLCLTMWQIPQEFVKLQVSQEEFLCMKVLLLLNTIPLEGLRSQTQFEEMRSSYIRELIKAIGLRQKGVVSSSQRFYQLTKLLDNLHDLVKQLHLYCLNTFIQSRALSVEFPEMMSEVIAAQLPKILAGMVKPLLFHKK
The experiment in a line: Antagonist activity at progesterone receptor in human T47D cells assessed as inhibition of progesterone-induced alkaline phosphatase activity. Type of experiment: functional, cell-based.
Turning to `COc1ccc([C@H]2OC[C@@]3(C)[C@@H](CC[C@@]3(O)C#Cc3ccc(C(F)(F)F)cc3)[C@@H]3CCC4=CC(=O)CCC4=C32)cc1`, the IC50 was 82 nM.

In the case of `C#C[C@]1(O)CC[C@H]2[C@@H]3CCC4=CC(=O)CCC4=C3[C@@H](c3ccc(OC)cc3)OC[C@@]21C`, the IC50 is above 1000 nM.

Turning to `COc1ccc([C@H]2OC[C@@]3(C)[C@@H](CC[C@@]3(O)C#Cc3ccccc3)[C@@H]3CCC4=CC(=O)CCC4=C32)cc1`, the IC50 was 280 nM.

Consider `CC#C[C@]1(O)CC[C@H]2[C@@H]3CCC4=CC(=O)CCC4=C3[C@@H](c3ccc(N(C)C)cc3)OC[C@@]21C`, for which the IC50 amounted to 34 nM.

For `C=C(C)[C@]1(O)CC[C@H]2[C@@H]3CCC4=CC(=O)CCC4=C3[C@@H](c3ccc(SC)cc3)OC[C@@]21C`, the IC50 was 3.3 nM.

For `C=C1CCO[C@]12CC[C@H]1[C@@H]3CCC4=CC(=O)CCC4=C3[C@@H](c3ccc(N(C)C)cc3)OC[C@@]12C`, the IC50 was 1 nM.

As for `CSc1ccc([C@H]2OC[C@@]3(C)[C@@H](CC[C@@]3(O)C(F)(F)C(F)(F)F)[C@@H]3CCC4=CC(=O)CCC4=C32)cc1`, the IC50 came to 56 nM.

Consider `CN(C)c1ccc([C@H]2OC[C@@]3(C)[C@@H](CC[C@@]3(O)C#Cc3ccccc3)[C@@H]3CCC4=CC(=O)CCC4=C32)cc1`, for which the IC50 worked out at 60 nM.

`CN(C)c1ccc([C@H]2OC[C@]3(C)[C@@H](O)CC[C@H]3[C@@H]3CCC4=CC(=O)CCC4=C32)cc1`: the IC50 was found to be 930 nM.

`C=C(C)[C@]1(O)CC[C@H]2[C@@H]3CCC4=CC(=O)CCC4=C3[C@@H](c3ccc(N(C)C)cc3)OC[C@@]21C`: the IC50 was found to be 0.3 nM.

For the compound `C=C(C)[C@]1(O)CC[C@H]2[C@@H]3CCC4=CC(=O)CCC4=C3[C@@H](c3ccc(S(C)(=O)=O)cc3)OC[C@@]21C`, the IC50 is above 1000 nM.

For the compound `CN(C)c1ccc([C@H]2OC[C@@]3(C)[C@@H](CC[C@@]3(O)C(F)(F)C(F)(F)F)[C@@H]3CCC4=CC(=O)CCC4=C32)cc1`, the IC50 came out at 36 nM.

In the case of `C=C1CCO[C@]12CC[C@H]1[C@@H]3CCC4=CC(=O)CCC4=C3[C@@H](c3ccc(OC)cc3)OC[C@@]12C`, the IC50 was found to be 7 nM.

On to `CC#C[C@]1(O)CC[C@H]2[C@@H]3CCC4=CC(=O)CCC4=C3[C@@H](c3ccc(OC)cc3)OC[C@@]21C`, for which the IC50 is above 1000 nM.

For the compound `C#C[C@]1(O)CC[C@H]2[C@@H]3CCC4=CC(=O)CCC4=C3[C@@H](c3ccc(N(C)C)cc3)OC[C@@]21C`, the IC50 was 33 nM.

A further experiment has as its system Rattus norvegicus. The experiment in a line: Blockade of progesterone-dependent inhibition of ethinyl estradiol-induced complement C3 expression in po dosed ovariectomized Sprague-Dawley rat uterus. Type of experiment: functional, organism-based.
For `CC#C[C@]1(O)CC[C@H]2[C@@H]3CCC4=CC(=O)CCC4=C3[C@@H](c3ccc(N(C)C)cc3)OC[C@@]21C`, the IC50 is 16 mg/kg.

`CC#C[C@]1(O)CC[C@H]2[C@@H]3CCC4=CC(=O)CCC4=C3[C@@H](c3ccc(N(C)C)cc3)C[C@@]21C` [MIFEPRISTONE]: the IC50 came out at 4.6 mg/kg.

The values above are taken from ChEMBL document CHEMBL1152897, “Synthesis and SAR study of novel pseudo-steroids as potent and selective progesterone receptor antagonists” (Bioorg Med Chem Lett, 2009).
